Measurements from patent US12612386B2, “Heteroaryl-triazole compounds as pesticides” (Bayer Aktiengesellschaft, priority 2020, dated 2026).

Assays:
Format in all cases: in vivo
[1] = system: engorged adult female cattle ticks (Rhipicephalus microplus) strain Parkhurst, SP-resistant; experiment: Rhipicephalus (Boophilus) microplus dip test; settings: 100 ppm, egg deposition after 7 days
Method: Rhipicephalus (Boophilus) Microplus—Dip Test
Test animal: cattle ticks (Rhipicephalus microplus) strain Parkhurst, SP-resistant
Solvent: dimethyl sulfoxide
To produce a suitable preparation of active compound, 10 mg of active compound are dissolved in 0.5 mL solvent, and the concentrate is diluted with water to the desired concentration.
This compound solution is pipetted into tubes. 8-10 engorged, adult, female cattle ticks (Rhipicephalus microplus) are placed in perforated tubes. These tubes are immersed in the aqueous compound solution until the ticks are completely moistened. After the liquid has drained off, the ticks are transferred to a filter paper in a plastic tray and stored in a climate chamber.
After 7 days egg deposition of fertile eggs is monitored. Eggs where fertility is not visible are stored in a climate chamber till hatching after about 42 days. An efficacy of 100% means all eggs are infertile; 0% means all eggs are fertile.

[2] = system: adult mosquitoes Aedes aegypti strain MONHEIM; experiment: Aedes aegypti test (AEDSAE surface treatment & contact assay); settings: 24 hours after contact, read-out: efficacy (mortality)
How it was run: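 Compound in acetone containing 2000 ppm rapeseed oil methyl ester applied to a glazed tile and dried; adult mosquitoes exposed on the treated surface for 30 minutes. Percent mortality scored 24 hours after contact (100% = all dead, 0% = none dead).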

[3] = system: adult flies Musca domestica strain WHO-N; experiment: Musca domestica test (MUSCDO surface treatment & contact assay); settings: surface concentration 20 mg/m^2, 30 min exposure, 24 hours after contact, read-out: efficacy (mortality)
How it was run: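 Compound in acetone with 2000 ppm rapeseed oil methyl ester dried onto glazed tile; adult WHO-N strain flies exposed to surface 30 minutes. Percent mortality scored 24 hours after contact.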

SMILES: C[C@H](NC(=O)c1cc(Br)cc(OC(F)(F)F)c1)c1ncnn1-c1cc(C#N)ncn1 [I-1, 3-bromo-N-{(1S)-1-[1-(6-cyanopyrimidin-4-yl)-1H-1,2,4-triazol-5-yl]ethyl}-5-(trifluoromethoxy)benzamide]
- efficacy (infertile eggs) [1]: 100%
- mortality at 4 mg/m2 ([2]; surface concentration 4 mg/m^2, 30 min exposure): 80 to 100%
- mortality at 20 mg/m2 ([2]; surface concentration 20 mg/m^2, 30 min exposure): 80 to 100%
- mortality at 20 mg/m2 [3]: 80 to 100%
